# Source: patent US9187426B2, “Organic compounds” (Novartis AG, priority 2008, dated 2015)
row,SMILES,melting point [°C]
1,"O=C(NCc1csc(C(F)(F)F)n1)c1ccnc(N2CCN(Cc3ccc(F)cc3)C2=O)c1 [Example 14.15, 2-(3-(4-fluorobenzyl)-2-oxoimidazolidin-1-yl)-N-((2-(trifluoromethyl)thiazol-4-yl)methyl)isonicotinamide]",66 to 68
2,"CC(C)Cc1c[nH]c(-c2ccnc(NC(=O)c3ccccc3)c2)n1 [Example 10.3, N-(4-(4-isobutyl-1H-imidazol-2-yl)pyridin-2-yl)benzamide]",103 to 105
3,"O=C(NC[C@H](O)c1ccccc1)c1ccnc(N2CCN(Cc3ccc(F)cc3)C2=O)c1 [Example 14.12, (R)-2-(3-(4-fluorobenzyl)-2-oxoimidazolidin-1-yl)-N-(2-hydroxy-2-phenylethyl)isonicotinamide]",97 to 99
4,"O=C(NCc1ccccc1)c1ccnc(NC(=O)c2ccc(F)cc2)c1 [Example 6.14, N-benzyl-2-(4-fluorobenzamido)isonicotinamide]",170 to 171
5,"O=C(Nc1cc(-c2nc3ccccc3[nH]2)ccn1)c1ccccc1 [Example 4, N-(4-(1H-benzo[d]imidazol-2-yl)pyridin-2-yl)benzamide]",145 to 146
6,"Cn1cc(CNC(=O)c2ccnc(N3CCN(Cc4ccc(F)cc4)C3=O)c2)cn1 [Example 14.8, 2-(3-(4-fluorobenzyl)-2-oxoimidazolidin-1-yl)-N-((1-methyl-1H-pyrazol-4-yl)methyl)isonicotinamide]",165 to 166
7,"O=C(NCc1ccon1)c1ccnc(N2CCN(Cc3ccc(F)cc3)C2=O)c1 [Example 14.14, 2-(3-(4-fluorobenzyl)-2-oxoimidazolidin-1-yl)-N-(isoxazol-3-ylmethyl)isonicotinamide]",127 to 129
8,"O=C(NCc1ccccc1)c1ccnc(N2CCN(Cc3ccc(F)cc3)C2=O)c1 [Example 15, N-benzyl-2-(3-(4-fluorobenzyl)-2-oxoimidazolidin-1-yl)isonicotinamide]",167 to 169
9,"O=C(NCc1ccccc1)c1ccnc(N2CCC(c3ccccc3)CC2=O)c1 (centres unmarked) [Example 18, 2-oxo-4-phenyl-3,4,5,6-tetrahydro-2H-[1,2′]bipyridinyl-4′-carboxylic acid benzylamide]",55 to 60
10,"O=C(Nc1cc(-c2nnc(-c3ccccc3)o2)ccn1)c1ccccc1 [Example 11, N-(4-(5-phenyl-1,3,4-oxadiazol-2-yl)pyridin-2-yl)benzamide]",151 to 155
11,"CNC(=O)c1ccnc(N2CCN(Cc3ccc(F)cc3)C2=O)c1 [Example 13, 2-(3-(4-fluorobenzyl)-2-oxoimidazolidin-1-yl)-N-methylisonicotinamide]",118 to 120
12,"O=C(NCc1ccc(C(F)(F)F)cc1)c1ccnc(NC(=O)c2ccccc2)c1 [Example 1, 2-benzamido-N-(4-(trifluoromethyl)benzyl)isonicotinamide]",165 to 168
13,"Cc1nn(C)c(C)c1CNC(=O)c1ccnc(N2CCN(Cc3ccc(F)cc3)C2=O)c1 [Example 14.7, 2-(3-(4-fluorobenzyl)-2-oxoimidazolidin-1-yl)-N-((1,3,5-trimethyl-1H-pyrazol-4-yl)methyl)isonicotinamide]",179 to 181
14,"NC(=O)c1ccnc(N2CCN(Cc3ccc(F)cc3)C2=O)c1 [Example 22, 2-(3-(4-fluorobenzyl)-2-oxoimidazolidin-1-yl)isonicotinamide]",206 to 208
15,"O=C(NCc1ccccc1)c1cc[n+]([O-])c(NC(=O)c2ccccc2)c1 [Example 7, 2-benzamido-N-benzylisonicotinamide-1-N-oxide]",198 to 201
16,"O=C(NCc1ccccc1)c1ccnc(NC(=O)c2ccccc2F)c1 [Example 6, N-benzyl-2-(2-fluorobenzamido)isonicotinamide]",175 to 176
17,"O=C(NCc1cc[nH]n1)c1ccnc(N2CCN(Cc3ccc(F)cc3)C2=O)c1 [Example 14.9, N-((1H-pyrazol-3-yl)methyl)-2-(3-(4-fluorobenzyl)-2-oxoimidazolidin-1-yl)isonicotinamide]",178 to 180
18,"COc1ccc(C(=O)Nc2cc(C(=O)NCc3ccccc3)ccn2)cc1 [Example 6.5, N-benzyl-2-(4-methoxybenzamido)isonicotinamide]",165 to 166
19,"COc1ccccc1C(=O)Nc1cc(C(=O)NCc2ccccc2)ccn1 [Example 6.6, N-benzyl-2-(2-methoxybenzamido)isonicotinamide]",205 to 207
20,"O=C(NCc1ccccc1)c1ccnc(-n2ccc(-c3ccccc3)cc2=O)c1 [Example 17, N-benzyl-2-(2-oxo-4-phenylpyridin-1(2H)-yl)isonicotinamide]",162 to 163
21,"O=C(NCc1ccccc1)c1ccnc(NC(=O)c2cccc(F)c2)c1 [Example 6.1, N-benzyl-2-(3-fluorobenzamido)isonicotinamide]",140 to 143
22,"Cc1cc(CNC(=O)c2ccnc(N3CCN(Cc4ccc(F)cc4)C3=O)c2)nn1C [Example 14.11, N-((1,5-dimethyl-1H-pyrazol-3-yl)methyl)-2-(3-(4-fluorobenzyl)-2-oxoimidazolidin-1-yl)isonicotinamide]",150 to 152
23,"O=C(NCc1ccccc1)c1ccnc(-n2cnn(Cc3ccc(F)cc3)c2=O)c1 [Example 16, N-benzyl-2-(1-(4-fluorobenzyl)-5-oxo-1H-1,2,4-triazol-4(5H)-yl)isonicotinamide]",173 to 175

# Continued, values first:
row,melting point [°C],SMILES
1,136 to 138,"Cc1nnc(CNC(=O)c2ccnc(N3CCN(Cc4ccc(F)cc4)C3=O)c2)o1 [Example 26.1, 2-(3-(4-Fluorobenzyl)-2-oxoimidazolidin-1-yl)-N-((5-methyl-1,3,4-oxadiazol-2-yl)methyl)isonicotinamide]"
2,211 to 213,"O=C(NCc1nnco1)c1ccnc(N2CCN(Cc3ccc(F)cc3)C2=O)c1 [Example 26.4, N-((1,3,4-Oxadiazol-2-yl)methyl)-2-(3-(4-fluorobenzyl)-2-oxoimidazolidin-1-yl)isonicotinamide]"
3,185 to 186,"O=C(NCc1cnc(Cl)s1)c1ccnc(N2CCN(Cc3ccc(F)cc3)C2=O)c1 [Example 26.11, N-((2-Chlorothiazol-5-yl)methyl)-2-(3-(4-fluorobenzyl)-2-oxoimidazolidin-1-yl)isonicotinamide]"
4,122 to 123,"O=C(NCc1ccccn1)c1ccnc(N2CCN(CC3CC3)C2=O)c1 [Example 15.10, 2-(3-(cyclopropylmethyl)-2-oxoimidazolidin-1-yl)-N-(pyridin-2-ylmethyl)isonicotinamide]"
5,199 to 201,"O=C(NCc1cc(-c2ccccc2)on1)c1ccnc(N2CCN(Cc3ccc(F)cc3)C2=O)c1 [Example 26.10, 2-(3-(4-Fluorobenzyl)-2-oxoimidazolidin-1-yl)-N-((5-phenylisoxazol-3-yl)methyl)-isonicotinamide]"
6,97 to 99,"O=C(NCc1nccs1)c1ccnc(N2CCN(Cc3ccc(OC(F)(F)F)cc3)C2=O)c1 [Example 26.17, 2-(2-Oxo-3-(4-(trifluoromethoxy)benzyl)imidazolidin-1-yl)-N-(thiazol-2-ylmethyl)-isonicotinamide]"
7,161 to 163,"O=C(NCc1cnc(Cl)s1)c1ccnc(N2CCN(Cc3ccc(F)c(F)c3)C2=O)c1 [Example 26.33, N-((2-Chlorothiazol-5-yl)methyl)-2-(3-(3,4-difluorobenzyl)-2-oxoimidazolidin-1-yl)isonicotinamide]"
8,168 to 170,"O=C(NCc1ccc(F)cc1)c1ccnc(N2CCN(Cc3ccc(C(F)(F)F)cc3)C2=O)c1 [Example 26.2, N-(4-Fluorobenzyl)-2-(2-oxo-3-(4-(trifluoromethyl)benzyl)imidazolidin-1-yl)isonicotinamide]"
9,178 to 180,"O=C(NCc1cc(Br)no1)c1ccnc(N2CCN(Cc3ccc(F)cc3)C2=O)c1 [Example 26.9, N-((3-Bromoisoxazol-5-yl)methyl)-2-(3-(4-fluorobenzyl)-2-oxoimidazolidin-1-yl)isonicotinamide]"
10,135 to 137,"O=C(NCC1CC1)c1ccnc(N2CCN(Cc3ccc(F)cc3)C2=O)c1 [Example 15.5, N-(cyclopropylmethyl)-2-(3-(4-fluorobenzyl)-2-oxoimidazolidin-1-yl)isonicotinamide]"
11,181 to 183,"O=C(NCc1cncs1)c1ccnc(-n2cnn(Cc3ccc(F)cc3)c2=O)c1 [Example 26.26, 2-(1-(4-Fluorobenzyl)-5-oxo-1H-1,2,4-triazol-4(5H)-yl)-N-(thiazol-5-ylmethyl)-isonicotinamide]"
12,122 to 123,"O=C(NCc1cccnc1)c1ccnc(N2CCN(CC3CC3)C2=O)c1 [Example 15.9, 2-(3-(cyclopropylmethyl)-2-oxoimidazolidin-1-yl)-N-(pyridin-3-ylmethyl)isonicotinamide]"
13,154 to 156,"O=C(NCc1ccccc1)c1ccnc(N2CCN(Cc3ccncc3)C2=O)c1 [Example 15.19, N-benzyl-2-(2-oxo-3-(pyridin-4-ylmethyl)imidazolidin-1-yl)isonicotinamide]"
14,171 to 173,"O=C(NCc1ccc(F)cc1)c1ccnc(N2CCN(Cc3ccc(F)cc3F)C2=O)c1 [Example 15.22, 2-(3-(2,4-difluorobenzyl)-2-oxoimidazolidin-1-yl)-N-(4-fluorobenzyl)isonicotinamide]"
15,137 to 139,"O=C(NCc1ccccc1)c1ccnc(-n2cnn(CC3CC3)c2=O)c1 [Example 15.13, N-benzyl-2-(1-(cyclopropylmethyl)-5-oxo-1H-1,2,4-triazol-4(5H)-yl)isonicotinamide]"
16,150 to 151,"O=C(NCc1ccc(F)cc1)c1ccnc(N2CCN(CC3CC3)C2=O)c1 [Example 15.6, 2-(3-(cyclopropylmethyl)-2-oxoimidazolidin-1-yl)-N-(4-fluorobenzyl)isonicotinamide]"
17,170 to 172,"O=C(NCc1nccs1)c1ccnc(-n2cnn(Cc3ccc(F)cc3)c2=O)c1 [Example 26.21, 2-(1-(4-Fluorobenzyl)-5-oxo-1H-1,2,4-triazol-4(5H)-yl)-N-(thiazol-2-ylmethyl)-isonicotinamide]"
18,121 to 123,"O=C(NCc1ccccc1)c1ccnc(N2CCN(CC3CC3)C2=O)c1 [Example 15.8, N-benzyl-2-(3-(cyclopropylmethyl)-2-oxoimidazolidin-1-yl)isonicotinamide]"
